Data on 19 compounds can be found in ChEMBL document CHEMBL5223157, “Divergent reactivity of usnic acid and evaluation of its derivatives for antiproliferative activity against cancer cells” (Bioorg Med Chem, 2023).

The subject of data set [1] is HeLa. The data set can be described thus: Antiproliferative activity against human HeLa cells assessed as reduction in cell viability measured at 24 hrs by MTT assay. In kind it is functional, cell-based. Background: Tetrazolium assays rely on reduction of a dye to a coloured formazan, in cell work by metabolically active cells.
In data set [2] the test system is HeLa. The data set can be described thus: Antiproliferative activity against human HeLa cells assessed as reduction in cell viability measured at 48 hrs by MTT assay. In kind it is functional, cell-based.
A short description of data set [3]: Half life in human liver microsomes. In kind it is ADME, Microsome. On the technique in general: Liver microsomes are vesicles of endoplasmic reticulum, rich in cytochrome P450 enzymes.
The nature of data set [4]: Plasma protein binding in human relative to control. In kind it is ADME, cell-free. As to conditions: read-out: PPB (converted).
Data set [5] in a line: Drug recovery in human plasma relative to control. In kind it is ADME, cell-free.
Another data set deals with Cytochrome P450 2C19 (Homo sapiens, UniProt P33261). The data set can be described thus: Inhibition of CYP2C19 in human liver microsomes. In kind it is ADME, Microsome.
Data set [6] in a line: Aqueous solubility of the compound in simulated gastric fluid. In kind it is ADME.
For another data set, the target named is CYP3A (Homo sapiens, UniProt P08684+P20815+P24462+Q9HB55). The data set can be described thus: Inhibition of CYP3A in human liver microsomes at 10 uM relative to control. In kind it is ADME, Microsome.
The next data set addresses CYP2C19 (Homo sapiens, UniProt P33261). The data set can be described thus: Inhibition of CYP2C19 in human liver microsomes at 10 uM relative to control. In kind it is ADME, Microsome.
Data set [7] can be described thus: Aqueous solubility of the compound in simulated intestinal fluid. In kind it is ADME.
Data set [8] can be described thus: Permeability across basolateral to apical side in human Caco-2 cells. In kind it is ADME, cell-based. As to conditions: read-out: permeability.
A further data set concerns the target CYP2C9 (Homo sapiens, UniProt P11712). The data set can be described thus: Inhibition of CYP2C9 in human liver microsomes at 10 uM relative to control. In kind it is ADME, Microsome.
For the next data set, the target named is Cytochrome P450 2C9 (Homo sapiens, UniProt P11712). The data set can be described thus: Inhibition of CYP2C9 in human liver microsomes. In kind it is ADME, Microsome.
The target in a further data set is T1, CYP2C8 (Homo sapiens, UniProt P10632).
T1 sequence (P10632 whole entry): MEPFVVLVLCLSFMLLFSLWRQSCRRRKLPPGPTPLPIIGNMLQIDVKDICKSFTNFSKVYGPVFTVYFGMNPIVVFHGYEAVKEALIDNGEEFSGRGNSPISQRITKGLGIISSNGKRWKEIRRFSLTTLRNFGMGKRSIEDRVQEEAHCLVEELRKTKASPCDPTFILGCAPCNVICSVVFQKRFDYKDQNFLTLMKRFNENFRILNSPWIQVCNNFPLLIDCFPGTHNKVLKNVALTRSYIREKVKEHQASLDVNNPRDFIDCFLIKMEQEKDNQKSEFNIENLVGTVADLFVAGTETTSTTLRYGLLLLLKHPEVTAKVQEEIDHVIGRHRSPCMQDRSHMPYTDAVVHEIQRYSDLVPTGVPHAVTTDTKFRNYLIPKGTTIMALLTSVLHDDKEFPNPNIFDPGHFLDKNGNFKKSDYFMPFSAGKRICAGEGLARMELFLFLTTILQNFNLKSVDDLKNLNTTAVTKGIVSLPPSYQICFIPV
The data set can be described thus: Inhibition of CYP2C8 in human liver microsomes at 10 uM relative to control. In kind it is ADME, Microsome.

Data set [9] can be described thus: Permeability across apical to basolateral side in human Caco-2 cells. As to conditions: read-out: permeability. In kind it is ADME, cell-based.
The next data set deals with T2, Cytochrome P450 2C8 (Homo sapiens, UniProt P10632).
T2 sequence (P10632 whole entry): T1 sequence (P10632 whole entry)
The data set can be described thus: Inhibition of CYP2C8 in human liver microsomes. In kind it is ADME, Microsome.

Another data set concerns HDFa. The data set can be described thus: Antiproliferative activity against human HDFa cells assessed as reduction in cell viability measured at 48 hrs by MTT assay. In kind it is functional, cell-based.
Data set [10] is described as follows: Lipophilicity, logD of the compound. In kind it is physicochemical. As to conditions: octanol/water.
Data set [11] in a line: Aqueous solubility of compound in PBS at pH 7.4. In kind it is physicochemical.
Data set [12] in a line: Toxicity in nude mouse xenografted with human MCF7 cells assessed as side effects at 400 mg/kg, po. In kind it is organism-based. As to conditions: in vivo. (Xenograft models place foreign cells or tissue in a host animal.)

What is called IC50 is the concentration that inhibits the measured activity by half. Broadly, the half-life is how long it takes for the measured level to halve. For orientation: solubility means the concentration that dissolves in the medium under given conditions. The term inhibition denotes the relative decrease from the control value, in per cent. A low value points to little suppression. For orientation: logD means lipophilicity at a set pH, counting ionised and neutral species.

In brackets after ≈: the same amount, converted by molar mass. Activity calls are given as the source filed them. The calls are words filed in the database; no cut-off is given here.

CYP2C19, sequence (P33261 whole entry): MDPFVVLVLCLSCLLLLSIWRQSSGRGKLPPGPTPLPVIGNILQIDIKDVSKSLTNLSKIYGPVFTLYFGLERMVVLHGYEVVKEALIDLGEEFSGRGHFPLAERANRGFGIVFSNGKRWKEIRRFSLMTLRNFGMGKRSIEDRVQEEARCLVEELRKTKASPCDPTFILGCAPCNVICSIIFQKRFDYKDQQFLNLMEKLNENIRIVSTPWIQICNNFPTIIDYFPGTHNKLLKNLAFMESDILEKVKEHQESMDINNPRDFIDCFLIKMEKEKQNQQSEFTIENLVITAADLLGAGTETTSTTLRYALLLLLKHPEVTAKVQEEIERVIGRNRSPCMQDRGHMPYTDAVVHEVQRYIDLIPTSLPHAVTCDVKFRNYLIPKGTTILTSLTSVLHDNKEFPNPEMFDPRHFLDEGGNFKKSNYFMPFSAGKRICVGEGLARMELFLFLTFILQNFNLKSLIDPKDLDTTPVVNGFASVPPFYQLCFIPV
Cytochrome P450 2C9, sequence (P11712 whole entry): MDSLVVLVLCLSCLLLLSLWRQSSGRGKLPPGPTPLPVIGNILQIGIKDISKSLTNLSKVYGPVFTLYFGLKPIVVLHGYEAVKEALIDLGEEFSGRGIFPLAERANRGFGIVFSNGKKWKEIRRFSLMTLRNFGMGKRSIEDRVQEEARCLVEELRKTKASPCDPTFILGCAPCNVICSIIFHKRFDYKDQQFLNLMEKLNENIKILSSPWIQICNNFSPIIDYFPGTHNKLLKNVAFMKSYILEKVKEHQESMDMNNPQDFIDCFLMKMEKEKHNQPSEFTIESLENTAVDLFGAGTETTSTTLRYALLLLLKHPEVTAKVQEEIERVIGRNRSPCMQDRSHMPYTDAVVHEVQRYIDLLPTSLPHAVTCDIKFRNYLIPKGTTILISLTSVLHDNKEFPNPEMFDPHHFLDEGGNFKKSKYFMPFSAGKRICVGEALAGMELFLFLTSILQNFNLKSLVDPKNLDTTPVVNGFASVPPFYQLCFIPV
CYP2C9, sequence (P11712 whole entry): as above
Cytochrome P450 2C19, sequence (P33261 whole entry): as the sequence (P33261 whole entry) above

With `CC(=O)c1c(O)c(C)c(O)c2c1OC1=CC(=O)c3c(C)nn(C)c3[C@@]12C`, the IC50 in the data set on HeLa [1] and in the data set on HeLa [2] was > 15 µM throughout.

Turning to `CC(=O)c1c(O)c(C)c(O)c2c1OC1=Cc3c(c(C)nn3CCO)C(=O)[C@@]12C`, the IC50 in the data set on HeLa [1] and with HeLa [2] was > 15 µM each time.

For `CC(=O)c1c(O)c(C)c(O)c2c1OC1=Cc3c(c(C)nn3-c3ccccn3)C(=O)[C@@]12C`, the IC50 in the data set with HeLa [1] and in the data set with HeLa [2] was > 15 µM each time.

Take `COc1cccc2c1C(=O)c1c(O)c3c(c(O)c1C2=O)C[C@@](O)(C(=O)CO)C[C@@H]3O[C@H]1C[C@H](N)[C@H](O)[C@H](C)O1` [DOXORUBICIN]: the IC50 with HeLa [1] is 3.33 µM; with HeLa [2], 0.429 µM.

For the compound `CC(=O)c1c(O)c(C)c(O)c2c1O[C@@H]1Cc3n[nH]c(C)c3C(=O)[C@]21C`, the IC50 in the data set with HeLa [1] and with HeLa [2] was > 15 µM in each case.

In turn, `CC(=O)C1=C(O)C=C2Oc3c(C(C)=O)c(O)c(C)c(O)c3[C@@]2(C)C1=O` [(+)-USNIC ACID] yielded a half-life in data set [3] of 1.32 h. Moreover, the fraction unbound in [4] is 0.0024. Further, the IC50 in the data set with HeLa [1] and in the data set with HeLa [2] was > 15 µM in each case. Also, in data set [5], the Drug recovery was 95%.

As for `CC(=O)c1c(O)c(C)c(O)c2c1OC1=CC(O)=C(/C(C)=N/N)C(=O)[C@@]12C`, the IC50 in the data set on HeLa [1] and in the data set on HeLa [2] was > 15 µM in each case.

As for `CC(=O)c1c(O)c(C)c(O)c2c1O[C@@H]1Cc3n[nH]c(C)c3[C@H](O)[C@]21C`, the IC50 with HeLa [1] and in the data set with HeLa [2] was > 15 µM in each case.

`CC(=O)c1c(O)c(C)c(O)c2c1OC1=CC(=O)c3c(n[nH]c3C)[C@@]12C`: in data set [3], the half-life was > 1 h. The IC50 on Cytochrome P450 2C19 is 0.009 µM; with HeLa [1], 1.92 µM; in the data set with HeLa [2], 0.878 µM; at Cytochrome P450 2C9, 0.094 µM; against Cytochrome P450 2C8, 1.9 µM. Further, the solubility in data set [6] was > 200 µM; in data set [7], 11.5 µM (≈ 3.91 µg/mL); in data set [11] it was 4 µM (≈ 1.36 µg/mL). The inhibition at 10 µM on CYP3A stood at 51.3%; against CYP2C19, 65.9%; on CYP2C9 it was 74.6%; at CYP2C8, 52.6%. Moreover, in data set [8], the Papp B→A amounted to 1.6 ×10⁻⁶ cm/s. In addition, the fraction unbound in data set [4] was 0.04. Besides, the Drug recovery in data set [5] is reported as 19%. Besides, the Papp A→B in [9] turned out to be 11.3 ×10⁻⁶ cm/s. Further, the outcome in the data set on HDFa was inactive. The logD in data set [10] is > 3.68.

With `CC(=O)c1c(O)c(C)c(O)c2c1OC1=CC(O)=C(/C(C)=N/N(C)C)C(=O)[C@@]12C`, the IC50 with HeLa [1] and in the data set on HeLa [2] was > 15 µM in each case.

Regarding `CC(=O)c1c(O)c(C)c(O)c2c1OC1=Cc3c(c(C)nn3CCBr)C(=O)[C@@]12C`, the IC50 in the data set with HeLa [1] and in the data set on HeLa [2] was > 15 µM throughout.

In data set [3], `CC(=O)c1c(O)c(C)c(O)c2c1OC1=Cc3onc(C)c3C(=O)[C@@]12C` yielded a half-life of 0.383 h. In addition, the results for the solubility in [6], in [7] and in data set [11] were 37.6 µM (≈ 12.8 µg/mL), 1.6 µM (≈ 0.546 µg/mL) and 0.2 µM (≈ 0.0683 µg/mL), respectively. Besides, the inhibition at 10 µM against CYP3A worked out at 14.7%; against CYP2C19 it was 15.6%; at CYP2C8, 8.5%. Also, the Papp B→A in data set [8] worked out at 0.2 ×10⁻⁶ cm/s. Further, the fraction unbound in data set [4] is 0.06. The IC50 with HeLa [1] came out at 7.15 µM; in the data set with HeLa [2], 2.21 µM. In addition, the Activity entry in data set [12] is reported as “Non-Toxic”. In data set [5], this compound had a Drug recovery of 19%. Besides, the Papp A→B in [9] was 2.2 ×10⁻⁶ cm/s. The same compound had a logD in data set [10] of 3.32.

With `CCn1nc(C)c2c1C=C1Oc3c(C(C)=O)c(O)c(C)c(O)c3[C@@]1(C)C2=O`, the IC50 in the data set with HeLa [1] was > 15 µM; with HeLa [2] it was 11 µM.

On to `CC(=O)c1c(O)c(C)c(O)c2c1OC1=CC(=O)c3c(C)noc3[C@@]12C`, for which the IC50 in the data set with HeLa [1] and with HeLa [2] was > 15 µM throughout.

As for `CC(=O)c1c(O)c(C)c(O)c2c1OC1=Cc3c(c(C)nn3C)C(=O)[C@@]12C`, the IC50 is > 15 µM with HeLa [1] and 3.91 µM in the data set with HeLa [2].

Take `CC(C)=N/N=C(\C)c1c(O)c(C)c(O)c2c1OC1=CC(=O)c3c(n[nH]c3C)[C@@]12C`: the IC50 is > 15 µM in the data set with HeLa [1] and 8.65 µM in the data set on HeLa [2].

Consider `CC(=O)c1c(O)c(C)c(O)c2c1OC1=Cc3[nH]nc(C)c3C(=O)[C@@]12C`, for which the IC50 with HeLa [1] is 1.36 µM; in the data set on HeLa [2], 0.311 µM. Also, in the data set with HDFa, the result was inactive.

`CC(=O)c1c(O)c(C)c(O)c2c1OC1=CC(=O)c3c(nn(C)c3C)[C@@]12C`: the IC50 in the data set on HeLa [1] is 0.928 µM; in the data set on HeLa [2], 0.116 µM. The outcome in the data set with HDFa was inactive.

In the case of `CC(=O)c1c(O)c(C)c(O)c2c1OC1=Cc3c(c(C)nn3C(C)(C)C)C(=O)[C@@]12C`, the IC50 in the data set on HeLa [1] and with HeLa [2] was > 15 µM each time.
